Patent US20190211020A1 (Agency for Science, Technology and Research, priority 2012, published 2019)
“Also recorded” adds a separate entry of the source. Like-named read-outs stand apart in the source and are kept apart here.

How the values were obtained:
[1] = tested on: beta-catenin transcriptional activity; conditions: background; cited from earlier work
[2] = tested on: normal cord blood CD34+ cells; conditions: background; cited from earlier work
[3] = tested on: BC CD34+ CML cells; conditions: background; cited from earlier work
[4] = tested on: normal CD34+ cells; conditions: background; cited from earlier work
[5] = tested on: CD34+BC cells (including those carrying T315I mutation); conditions: background; cited from earlier work
[6] = tested on: eIF4E phosphorylation in BC GMPs; conditions: background; cited from earlier work
[7] = tested on: eIF4G levels in brain sections from Nlgn3 knock-out mice; experiment: Immunoblot of eIF4G in brain slices of Nlgn3 knock-out mice; set-up: species or system mouse; conditions: 40 μM CGP57380 or 50 nM ETC7168
Method: (§1) For biochemical analyses mice were sacrificed by CO2 inhalation, the cerebellum dissected and rapidly placed in a vibratome chamber and sectioned at 300 μm in cold oxygenated aCSF (in mM: 125 NaCl, 2.5 KCl, 1 MgCl2, 2 CaCl2, 1.25 NaH2PO4, 20 Glucose, 26 NaHCO3, 95% O2/5% CO2). Slices obtained were maintained at 33° C. in oxygenated aCSF and treated with 40 μM CGP57380 or 50 nM ETC7168 for 45 mins and tissues were subsequently snap frozen in liquid nitrogen. Tissues were lysed in 25 mM Tris-HCl, 150 mM NaCl, 1% Triton, 0.2% SDS, 5 mM EDTA, 2 mM DTT, 1 mM NaF, 1 mM Na3VO4 containing protease inhibitor cocktail. The soluble fractions were analyzed by immunoblotting with primary antibodies for 24 hrs at 4° C. followed by detection with secondary antibodies for enhanced chemoluminescent detection. Impact of MNK inhibitors on autism-related behavior was tested in a knock-out mouse model for autism. Nlgn3 knock-out mouse model a human mutation identified in patients with autism^73-74. Compounds were applied in DMSO using intraperitoneal injection in adult male mice (2-4 months of age). Two injections were performed, the first 30 h and a second one 5 h before testing. Behavioral testing was performed using a well-accepted test for autism that consists of quantitative analysis of ultrasonic vocalizations emitted by male mice exposed to females in estrous^75. The apparatus consisted of an arena (40 cm×20 cm) surrounded by 30-cm-high walls made of grey plastic and equipped with a microphone and a video camera. Prior to testing, the estrous cycle of each female mouse was assessed and only females in estrous were kept for testing. Male mice were acclimatized for 3 min in the chamber. Subsequently a female in estrous was introduced in the arena, and ultrasonic vocalizations were recorded for 3 min using the Avisoft system (Avisoft Bioacoustics) with a frequency bandwidth of 30 kHz to 100 kHz. The number and length of ultrasonic vocalizations were quantified. All animal experiments were approved by the cantonal veterinary office Basel-Stadt, Switzerland.

[8] = tested on: active nuclear beta-catenin in BC GMPs; conditions: background; cited from earlier work
[9] = tested on: patient-derived BC cells in NSG mice; conditions: 40 mg/kg/d CGP or 5 mg/kg/d dasatinib for three weeks; read at 16 weeks; cited from earlier work
[10] = tested on: TNF production by macrophage; conditions: stimulation with TLR agonists; background; cited from earlier work
[11] = tested on: eIF4E phosphorylation in cerebellar neurons in brain sections; experiment: Immunoblot of phospho-eIF4E in mouse cerebellar brain slices; conditions: 40 μM CGP57380 or 50 nM ETC7168 for 45 mins
Method: as §1, with “Impact of MNK inhibitors on autism-related behavior was tested in a knock-out mouse model for autism. Nlgn3 knock-out mouse model a human mutation identified in patients with autism^73-74. Compounds were applied in DMSO using intraperitoneal injection in adult male mice (2-4 months of age). Two injections were performed, the first 30 h and a second one 5 h before testing.” left out, “The apparatus consisted of an arena (40 cm×20 cm) surrounded by 30-cm-high walls made of grey plastic and equipped with a microphone and a video camera.” left out, “Male mice were acclimatized for 3 min in the chamber.” left out, “All animal experiments were approved by the cantonal veterinary office Basel-Stadt, Switzerland.” left out

[12] = tested on: eIF4E Ser209 phosphorylation in Hela cells; experiment: MNK cell-based assay (AlphaScreen SureFire, eIF4E Ser209 phosphorylation); conditions: Homo sapiens; eIF4E Ser209 phosphorylation, Hela cells, 2 hours; read-out: IC50 Hela
In short: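 Hela cells (30,000/well) exposed to test compound in serum-free medium for 2 h at 37 °C, then lysed. Phospho-Ser209 eIF4E quantified by AlphaScreen SureFire; IC50 obtained by non-linear regression of signal versus log compound concentration.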

[13] = tested on: eIF4E phosphorylation in K562 cells; experiment: Western blot of eIF4E phosphorylation in K562 cells; format: cell-based; conditions: various concentrations, 24 h
Method: (§2) K562 cell line was obtained from the ATCC, and grown in RPMI supplemented with 10% FCS, L-glutamine, and penicillin/streptomycin.
(§3) Exponentially growing cells were plated at 2×10^5 cells/ml, and whole cell lysate processed for western blot analysis using antibodies recognizing eIF4E, phospho-eIF4E (Cell signaling Technology),

[14] = tested on: phospho-eIF4E S209 in BC-CML primary cells; experiment: Immunofluorescence of phospho-eIF4E in BC-CML primary cells; format: cell-based, human; conditions: 48 h
Description: (§4) Cord Blood (CB) samples were purchased from the Singapore Cord Blood bank. CML samples were the Singapore General Hospital after signed informed consent under local IRB-approved procedures. MNCs were obtained using Ficoll separation, and CD34^+ cells selected by immunomagnetic beads (Miltenyi Biotech, Germany).
(§5) Cells (1×10^5) were cytospun onto glass slides, fixed with 4% paraformaldehye, and stained with mouse monoclonal antibodies against activated β-catenin (clone 8E7, Millipore, UK), or rabbit monoclonal antibodies against phospho-eIF4E S209 (EP2151Y, Abcam, UK). Slides were then stained with either PE-conjugated anti-mouse or FITC-conjugated anti-rabbit antibodies. Images were obtained with the use of a fluorescence microscope (Olympus IX71S1F3) at 40× magnification.

[15] = tested on: CD34+ BC cells; experiment: Serial replating assay, CD34+ BC-CML cells; format: cell-based, human; conditions: for serial replating efficiency of CD34+ BC cells compared to DMSO: increasing dose, 48 hr treatment, three replatings (>8 weeks)
Description: as §4
CD34-enriched CB and BC cells were thawed and allowed to recover overnight in serum-free StemPro media (Invitrogen, Carlsbad, Calif.), supplemented with human growth factors and 1× nutrient supplement (Invitrogen). Cells were then subjected to drug treatment for 48 hr, harvested, washed, and seeded in methycellulose (H4434, […] Technologies, Canada). Colonies were enumerated after 2 weeks, individually picked, and replated in fresh methylcellulose in a 96-well format, and counted at 2 weeks. Three rounds of serial replating (representing >8 weeks in culture) were performed.

[16] = target: T1, BCR-ABL (Homo sapiens, UniProt P00519); experiment: Western blot of CrK1 phosphorylation (BCR-ABL activity) in K562 cells; format: cell-based
T1 construct: host or cells: K562; the other entry of the earlier key: BCR (P11274, Breakpoint cluster region protein)
Method: as §2, §3

[17] = tested on: nuclear active beta-catenin in BC-CML primary cells; experiment: Immunofluorescence of nuclear active beta-catenin in BC-CML primary cells; format: cell-based, human
Description: as §4, §5

[18] = tested on: P116.c139 (acute T cell leukemia); experiment: Cell cytotoxicity assay (CellTiter-Glo), P116.c139; format: cell-based; conditions: T-cell, cell viability
Method: (§6) Cancer cell lines, MV-4-11 (leukemia), P116.c139 (acute T cell leukemia) and D1.1 (acute T cell leukemia), were purchased from ATCC and cultured according to supplier's recommendations. K562 cells (myelogenous leukemia) over-expressing eIF4E, were also used for the cytotoxicity assay. For cells treated for 48 hours, 5000 cells were seeded in 70 μl of growth medium in black, flat-bottom 96-well plate. For cells treated for six days, 1000 cells were seeded in 70 μl of growth medium in black, flat-bottom 96-well plate. […] 50 μl of the diluted compounds was added to the cells and incubated at 37° C. in 5% CO2. After 48 hours or six days treatment, cell viability was determined by CellTiter-Glo Luminescent Cell Viability Assay (Promega, Madison, Wis.). 120 μl of the reagent was added to the cells and luminescence was measured using Tecan Safire Reader. Data was analysed with Graphpad Prism software and the figures represented indicate the half maximal inhibitory concentration (IC50). Error bars denote standard deviation (SD).

[19] = tested on: MV-4-11, P116.c139 and D1.1 cell lines; experiment: Cell cytotoxicity assay, the three test cell lines taken together; format: cell-based
Method: as §6

[20] = tested on: D1.1 (acute T cell leukemia); experiment: Cell cytotoxicity assay (CellTiter-Glo), D1.1; format: cell-based; conditions: T-cell, cell viability
Method: as §6

[21] = tested on: K562 cells (myelogenous leukemia) over-expressing eIF4E; experiment: Cell cytotoxicity assay (CellTiter-Glo), K562; format: cell-based; conditions: for IC50: Homo sapiens, cell viability
Method: as §6

[22] = tested on: MV-4-11 (leukemia); experiment: Cell cytotoxicity assay (CellTiter-Glo), MV-4-11; format: cell-based; conditions: Homo sapiens, cell viability
Method: as §6

T1 sequence (P00519 with tags, fused parts or gaps): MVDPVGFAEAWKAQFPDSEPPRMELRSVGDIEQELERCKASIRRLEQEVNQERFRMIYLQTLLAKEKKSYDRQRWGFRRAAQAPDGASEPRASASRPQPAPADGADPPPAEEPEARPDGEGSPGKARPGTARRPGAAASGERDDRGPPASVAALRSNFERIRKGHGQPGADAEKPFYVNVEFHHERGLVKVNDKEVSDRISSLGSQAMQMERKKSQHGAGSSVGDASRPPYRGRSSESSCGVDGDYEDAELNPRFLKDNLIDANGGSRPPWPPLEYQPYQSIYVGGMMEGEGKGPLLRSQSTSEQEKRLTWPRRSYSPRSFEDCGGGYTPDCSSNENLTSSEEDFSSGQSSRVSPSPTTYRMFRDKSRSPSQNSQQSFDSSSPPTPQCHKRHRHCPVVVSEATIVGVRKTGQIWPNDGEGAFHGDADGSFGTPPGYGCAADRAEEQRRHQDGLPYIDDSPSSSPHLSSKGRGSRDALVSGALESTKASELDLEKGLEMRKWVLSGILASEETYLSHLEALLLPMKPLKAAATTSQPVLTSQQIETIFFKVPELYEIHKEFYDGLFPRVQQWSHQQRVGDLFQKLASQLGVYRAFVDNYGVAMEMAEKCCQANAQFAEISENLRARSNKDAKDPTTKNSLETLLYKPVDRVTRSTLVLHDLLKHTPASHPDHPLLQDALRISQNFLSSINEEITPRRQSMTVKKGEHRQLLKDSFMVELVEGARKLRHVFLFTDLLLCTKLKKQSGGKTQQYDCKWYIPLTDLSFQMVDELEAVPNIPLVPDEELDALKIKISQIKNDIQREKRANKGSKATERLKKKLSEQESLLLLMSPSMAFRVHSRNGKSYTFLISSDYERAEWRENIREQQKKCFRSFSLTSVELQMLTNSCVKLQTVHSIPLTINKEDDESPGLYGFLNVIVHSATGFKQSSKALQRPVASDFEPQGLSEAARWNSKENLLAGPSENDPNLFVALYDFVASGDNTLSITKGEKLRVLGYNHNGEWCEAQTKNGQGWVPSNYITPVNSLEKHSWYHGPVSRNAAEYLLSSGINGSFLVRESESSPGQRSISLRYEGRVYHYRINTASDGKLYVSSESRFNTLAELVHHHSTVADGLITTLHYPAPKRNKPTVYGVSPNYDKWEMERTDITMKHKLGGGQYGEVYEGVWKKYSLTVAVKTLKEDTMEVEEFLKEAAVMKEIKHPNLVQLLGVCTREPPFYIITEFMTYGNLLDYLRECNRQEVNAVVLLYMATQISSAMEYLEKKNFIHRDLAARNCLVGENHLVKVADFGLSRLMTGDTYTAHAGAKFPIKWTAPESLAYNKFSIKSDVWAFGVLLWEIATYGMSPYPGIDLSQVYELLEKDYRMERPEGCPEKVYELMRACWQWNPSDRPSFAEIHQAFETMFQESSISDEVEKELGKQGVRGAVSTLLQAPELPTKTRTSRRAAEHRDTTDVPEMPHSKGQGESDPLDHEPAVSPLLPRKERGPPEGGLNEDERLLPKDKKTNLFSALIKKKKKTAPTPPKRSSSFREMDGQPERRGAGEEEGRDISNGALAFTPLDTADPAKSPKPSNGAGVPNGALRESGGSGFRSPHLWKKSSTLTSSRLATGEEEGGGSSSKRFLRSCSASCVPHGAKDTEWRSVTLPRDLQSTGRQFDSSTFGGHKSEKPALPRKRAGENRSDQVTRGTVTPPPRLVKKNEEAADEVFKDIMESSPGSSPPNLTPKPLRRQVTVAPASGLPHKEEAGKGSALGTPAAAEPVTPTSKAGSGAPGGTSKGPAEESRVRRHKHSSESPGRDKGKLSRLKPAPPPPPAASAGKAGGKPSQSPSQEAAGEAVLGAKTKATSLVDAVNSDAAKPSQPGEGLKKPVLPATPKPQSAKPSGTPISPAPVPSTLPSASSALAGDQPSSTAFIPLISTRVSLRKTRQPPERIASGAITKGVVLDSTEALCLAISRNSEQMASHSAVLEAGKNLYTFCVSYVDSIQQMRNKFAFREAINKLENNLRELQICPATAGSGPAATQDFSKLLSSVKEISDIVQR

For `CC[n+]1c(/C=C/N(C)c2ccccc2)n(-c2ccccc2)c2ccc(-c3nc4ccccc4s3)cc21.[I-]` [AKT inhibitor IV], the “eIF4E-mediated increases in beta-catenin transcriptional activity” value [1] is listed as “prevented eIF4E-mediated increases in beta-catenin transcriptional activity”.
In the case of `Nc1ncnc2n[nH]c(Nc3ccc(F)cc3)c12` [CGP57380], the “ability of normal cord blood CD34+ cells to engraft NSG mice after in vitro treatment” value [2] is given as “not”, the “ability of BC CD34+ CML cells to engraft NSG mice after in vitro treatment” value [3] is given as “retarded their ability to engraft NSG mice” and the “ability of normal CD34+ cells to serially replate” value [4] is given as “not”. The “ability of CD34+ BC cells to serially replate for more than 8 weeks in methylcellulose” value [5] was “impaired the ability”, the “eIF4E phosphorylation in BC GMPs” value [6] was “inhibited eIF4E phosphorylation” and the “eIF4G levels in brain sections from Nlgn3 knock-out mice” value [7] was “elevation in eIF4G levels; also recorded: elevated eIF4G levels”. The “accumulation of active nuclear beta-catenin in BC GMPs” value [8] was “prevents accumulation of active nuclear beta-catenin”, the “serial transplantation of BC cells in NSG mice after in vivo treatment” value [9] was “prevented BC cells from serially transplanting NSG mice” and the “TNF production / release by macrophage” value [10] was “inhibited; also recorded: inhibits the release of TNF alpha”. The “eIF4E phosphorylation in cerebellar brain sections” value [11] was “inhibit eIF4E phosphorylation”.
In the case of `CN1CCN(C(=O)c2ccc(-c3cn4c(-c5ccc(O)cc5)cnc4cn3)cc2)CC1` [Example 1, (4-(3-(4-hydroxyphenyl)imidazo[1,2-a]pyrazin-6-l)phenyl)(4-methylpiperazin-1-yl)methanone], the IC50 [12] is reported as under 1000 nM, the “eIF4E phosphorylation in K562 (BC-CML cell line), Western blot” value (from here on “eIF4E phosphorylation in K562”) [13] is reported as “prevent eIF4E phosphorylation” and the “eIF4E phosphorylation in BC-CML primary cells, immunofluorescence” value [14] is reported as “prevent eIF4E phosphorylation”. The “serial replating efficiency of CD34+ BC cells compared to DMSO” value [15] was “retards the serial replating efficiency”.
In the case of `O=C(c1ccc(-c2cn3c(-c4ccc(O)cc4)cnc3cn2)cc1)N1CCOCC1` [Example 2, (4-(3-(4-hydroxyphenyl)imidazo[1,2-a]pyrazin-6-yl)phenyl)(morpholino)methanone], the IC50 [12] is reported as under 1000 nM, the “eIF4E phosphorylation in K562” value [13] is reported as “prevent eIF4E phosphorylation” and the “eIF4E phosphorylation in BC-CML primary cells, immunofluorescence” value [14] is reported as “prevent eIF4E phosphorylation”. For the same compound, the “ability of BC cells to serial replate” value ([15]; at 10.0 μM and 20.0 μM) was “potently impaired the ability of BC cells to serial replate” and the “serial replating efficiency of CD34+ BC cells compared to DMSO” value [15] was “retards serial replating efficiency”.
For `CN1CCN(C(=O)c2ccc(-c3ccn4ncc(-c5ccc(C#N)cc5)c4n3)cc2)CC1` [Example 176, 4-(5-(4-(4-methylpiperazine-1-carbonyl)phenyl)pyrazolo[1,5-a]pyrimidin-3-yl)benzonitrile], the “BCR-ABL activity (phosphorylation of CrK1) in K562 cells” value [16] was “decrease in BCR-ABL activity”, the “nuclear active beta-catenin in BC-CML primary cells, immunofluorescence” value [17] was “decrease in nuclear beta-catenin accumulation” and the IC50 ([18]; 144 h, 6 days, read-out: IC50 after 6 days of treatment, P116.c139) was 100 nM. The IC50 ([18]; 48 hours, read-out: IC50 after 48 hours of treatment, P116.c139) was 400 nM, the “relative cytotoxicity amongst the four compounds” value [19] was “most cytotoxic” and the IC50 ([19]; Homo sapiens, MV4-11, regardless of the treatment duration (48 hours or 6 days)) was at most 1000 nM. For the same compound, the IC50 [12] was under 1000 nM, the “eIF4E phosphorylation in K562” value [13] was “prevent eIF4E phosphorylation; also recorded: decrease in eIF4E phosphorylation” and the IC50 ([20]; 144 h, 6 days, read-out: IC50 after 6 days of treatment, D1.1) was 800 nM. For the same compound, the IC50 ([20]; 48 hours, read-out: IC50 after 48 hours of treatment, D1.1) was 1000 nM, the IC50 ([21]; K562, 144 h, 6 days, read-out: IC50 after 6 days of treatment, K562) was 3400 nM and the IC50 ([21]; K562, 48 hours, read-out: IC50 after 48 hours of treatment, K562) was 14200 nM. The “change of IC50 when treatment duration was extended from 48 hours to 6 days, K562” value ([21]; K562 cells over-expressing eIF4E) was “reduced by more than half”, the IC50 ([22]; MV4-11, 144 h, 6 days, read-out: IC50 after 6 days of treatment, MV-4-11) was 400 nM and the IC50 ([22]; MV4-11, 48 hours, read-out: IC50 after 48 hours of treatment, MV-4-11) was 1000 nM.
In the case of `Cc1nc(Nc2ncc(C(=O)Nc3c(C)cccc3Cl)s2)cc(N2CCN(CCO)CC2)n1` [dasatinib], the “ability of CD34+ BC cells to serially replate for more than 8 weeks in methylcellulose” value [5] is given as “only partially impaired”, the “eIF4E phosphorylation in BC GMPs” value [6] is given as “not” and the “accumulation of active nuclear beta-catenin in BC GMPs” value [8] is given as “not”. The “serial transplantation of BC cells in NSG mice after in vivo treatment” value [9] was “not”.
